Legend:
human IL-17A (hIL-17A) = target: T1, human IL-17A (hIL-17A) (Homo sapiens, UniProt Q16552); experiment: IL-17A enzyme-linked immunosorbent assay (competitive ELISA, receptor-ligand binding)
T1 construct: purchased Sino Biological Inc. 12047-H07B
T1 sequence (Q16552 24-155): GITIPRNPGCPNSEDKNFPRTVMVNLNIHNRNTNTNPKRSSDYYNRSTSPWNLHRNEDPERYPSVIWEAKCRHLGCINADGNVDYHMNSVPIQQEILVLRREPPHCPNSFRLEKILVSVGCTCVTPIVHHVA
Procedure: The inhibition of receptor-ligand binding by human IL-17A (hIL-17A) inhibitors was detected by competitive ELISA. A 96-well plate was inoculated 0.2 μg/ml IL-17 (Sino Biological Inc. Cat #12047-H07B) for incubation at 37° C. for 30 min, 100 μL for per well. The 96-well plate was washed four times with phosphate buffered saline (PBS) containing Tween-20 (PBST, 0.05% Tween-20), 200 μL for per well each time. 200 μL of 5% skim milk were added into the 96-well plate for incubation on a shaker at 25° C. for 30 min. The 96-well plate was washed four times with PBST (0.05% Tween-20), and added with 89 μL of PBST and 1 μL of a compound to be measured (100×), in which a concentration the compound to be measured (100×) was 0.003 μM-30 μM. The mixture was mixed evenly and incubated at 25° C. for 10 min. The mixture was added with 10 μL of 16 nM IL-17R, followed by incubation at 25° C. for 30 min. After washing the 96-well plate 4 times, 100 μL of anti-Fc tag horseradish peroxidase (HRP) coupled antibody were added for incubation on a shaker at 25° C. for 30 min. After washing the 96-well plate 4 times, 100 μL of 3,3′,5,5′-tetramethylbenzidine (TMB) substrate solution were added to the 96-well plate for incubation away from light at 25° C. After addition of 20% HCl, an absorbance was measure by a microplate reader at 450 nm.
The compounds prepared according to the above method were assayed for human IL-17A inhibitory activity.

hIL-17A = target: T2, hIL-17A (Homo sapiens, UniProt Q16552); experiment: Inhibition of hIL-17A-induced chemokine GROα/CXCL1 production in HT-29 cell; format: cell-based
T2 construct: purchased R&D 317-ILB
T2 sequence (Q16552 20-155 limits assumed): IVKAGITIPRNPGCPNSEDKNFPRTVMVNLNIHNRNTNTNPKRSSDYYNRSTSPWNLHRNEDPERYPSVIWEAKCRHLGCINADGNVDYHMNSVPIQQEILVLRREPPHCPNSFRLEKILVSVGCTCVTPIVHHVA
Procedure: Human colorectal adenocarcinoma cell HT-29 was inoculated to a 96-well plate (5×10^4 for per well), and incubated at 37° C. on an incubator overnight. A mixture of 30 ng/mL hIL-17A protein (R&D, #317-ILB) with gradient concentrations of IL-17A small molecule inhibitors or with 0.3 μg/mL positive control IL-17A antibody (R&D, #AF-317-NA) was incubated for 1 h at 37° C., and added into the 96-well plate to incubated with HT-29 at 37° C. for 48 h. A level of GROα in a cell culture supernatant was then detected using an ELISA kit for GROα (Cisbio, #62HCXC1peg).
Inhibitory effect of the compound prepared in Examples on hIL-17A-induced chemokine GROα/CXCL1 production in HT-29 cell was tested according to the methods of Experimental Examples 1 and 2. […] “-” indicated not tested. According to the results, the compounds provided herein have good human IL-17A inhibitory activity and can be effectively used in the treatment of diseases associated with abnormal hIL-17A activity.

Structure (SMILES)	IC50 (human IL-17A (hIL-17A))	IC50 (hIL-17A)
Cc1n[nH]c(C)c1-c1ccc(NC(=O)[C@@H](NC(=O)c2conc2C2CC2)C2c3cc(F)c(F)cc3OCC23CC3)cn1 (stereo partly drawn) [Compound 97]	165 nM	221 nM
Cc1nonc1C(=O)N[C@H](C(=O)Nc1ccc(-c2c(C)n[nH]c2C)nc1)C1c2ccc(F)cc2OCC12CC2 (stereo partly drawn) [Compound 27]	119 nM	672 nM
COCCc1nocc1C(=O)N[C@H](C(=O)Nc1ccc(-c2c(C)n[nH]c2C)cc1)C1c2cc(F)c(F)cc2OCC12CC2 (stereo partly drawn) [Compound 104]	116 nM	
Cc1n[nH]c(C)c1-c1ccc(NC(=O)[C@@H](NC(=O)c2nocc2C(C)C)C2c3ccc(F)cc3OCC23CC3)cn1 (stereo partly drawn) [Compound 33]	219 nM	92 nM
Cc1nonc1C(=O)N[C@H](C(=O)Nc1ccc(-c2c(C)n[nH]c2C)nc1)C1c2cc(F)ccc2OCC12CC2 (stereo partly drawn) [Compound 19]	190 nM	2050 nM
Cc1nonc1C(=O)N[C@H](C(=O)Nc1ccc(-c2c(C)n[nH]c2C)cc1)C1c2cc(F)c(F)cc2OCC12CC2 (stereo partly drawn) [Compound 42]	40 nM	70 nM
Cc1n[nH]c(C)c1-c1ccc(NC(=O)[C@@H](NC(=O)c2nonc2C(C)C)C2c3c(F)ccc(F)c3OCC23CC3)cc1 (stereo partly drawn) [Compound 82]	2030 nM	
Cc1n[nH]c(C)c1-c1ccc(NC(=O)[C@@H](NC(=O)c2ccnn2C(C)C)C2c3cc(F)c(F)cc3OCC23CC3)cn1 (stereo partly drawn) [Compound 62]	151 nM	177 nM
Cc1n[nH]c(C)c1-c1ccc(NC(=O)[C@@H](NC(=O)c2nonc2C2CC2)C2c3ccc(F)c(F)c3OCC23CC3)cc1 (stereo partly drawn) [Compound 87]	165 nM	332 nM
COCCc1nocc1C(=O)N[C@H](C(=O)Nc1cnc(-c2c(C)n[nH]c2C)c(F)c1)C1c2cc(F)c(F)cc2OCC12CC2 (stereo partly drawn) [Compound 88]	100 nM	
Cc1n[nH]c(C)c1-c1ncc(NC(=O)[C@@H](NC(=O)c2nonc2C(C)C)C2c3cc(F)c(F)cc3OCC23CC3)cc1F (stereo partly drawn) [Compound 46]	95 nM	122 nM
Cc1nonc1C(=O)N[C@H](C(=O)Nc1ccc(-c2c(C)n[nH]c2C)cc1)C1c2c(F)cc(F)cc2OCC12CC2 (stereo partly drawn) [Compound 52]	402 nM	
Cc1n[nH]c(C)c1-c1ncc(NC(=O)[C@@H](NC(=O)c2ccnn2C)C2c3ccc(F)cc3CC23CC3)cc1F (stereo partly drawn) [Compound 30]	65 nM	229 nM
Cc1n[nH]c(C)c1-c1ccc(NC(=O)[C@@H](NC(=O)c2nocc2C(C)C)C2c3ccc(F)cc3OCC23CC3)cc1 (stereo partly drawn) [Compound 35]	311 nM	85 nM
CCc1nocc1C(=O)N[C@H](C(=O)Nc1ccc(-c2c(C)n[nH]c2C)nc1)C1c2ccc(F)cc2OCC12CC2 (stereo partly drawn) [Compound 34]	120 nM	63 nM
Cc1nonc1C(=O)N[C@H](C(=O)Nc1ccc(-c2c(C)n[nH]c2C)cc1)C1c2c(F)ccc(F)c2OCC12CC2 (stereo partly drawn) [Compound 81]	2060 nM	
Cc1n[nH]c(C)c1-c1ccc(NC(=O)[C@@H](NC(=O)c2c(C(C)C)no[n+]2[O-])C2c3c(F)cc(F)cc3OCC23CC3)cc1 (stereo partly drawn) [Compound 61]	339 nM	
Cc1n[nH]c(C)c1-c1ccc(NC(=O)[C@@H](NC(=O)c2ccnn2C)C2c3cc(F)ccc3CC23CC3)cc1 (stereo partly drawn) [Compound 2]	41 nM	196 nM
Cc1n[nH]c(C)c1-c1ncc(NC(=O)[C@@H](NC(=O)c2nonc2C(C)C)C2c3c(F)ccc(F)c3OCC23CC3)cc1F (stereo partly drawn) [Compound 84]	9810 nM	
Cc1n[nH]c(C)c1-c1ncc(NC(=O)[C@@H](NC(=O)c2nonc2C2CC2)C2c3cc(F)c(F)cc3OCC23CC3)cc1F (stereo partly drawn) [Compound 92]	187 nM	9650 nM
Cc1n[nH]c(C)c1-c1ccc(NC(=O)[C@@H](NC(=O)c2ccnn2C(C)C)C2c3ccc(F)c(F)c3OCC23CC3)cn1 (stereo partly drawn) [Compound 50]	81 nM	569 nM
Cc1n[nH]c(C)c1-c1ccc(NC(=O)[C@@H](NC(=O)c2nonc2C2CC2)C2c3c(F)cc(F)cc3OCC23CC3)cc1 (stereo partly drawn) [Compound 67]	577 nM	557 nM

Structure (SMILES)	IC50 (human IL-17A (hIL-17A))	IC50 (hIL-17A)
Cc1n[nH]c(C)c1-c1ncc(NC(=O)[C@@H](NC(=O)c2ccnn2C(C)C)C2c3c(F)cc(F)cc3OCC23CC3)cc1F (stereo partly drawn) [Compound 60]	193 nM	279 nM
Cc1n[nH]c(C)c1-c1ccc(NC(=O)[C@@H](NC(=O)c2ccnn2C)C2c3ccc(F)cc3CC23CC3)cn1 (stereo partly drawn) [Compound 31]	72 nM	872 nM
CCn1nccc1C(=O)N[C@H](C(=O)Nc1ccc(-c2c(C)n[nH]c2C)nc1)C1c2cc(F)ccc2OCC12CC2 (stereo partly drawn) [Compound 21]	66 nM	506 nM
Cc1n[nH]c(C)c1-c1ccc(NC(=O)[C@@H](NC(=O)c2conc2C2CC2)C2c3ccc(F)cc3OCC23CC3)cn1 (stereo partly drawn) [Compound 99]	96 nM	213 nM
Cc1n[nH]c(C)c1-c1ccc(NC(=O)[C@@H](NC(=O)c2nonc2C(C)C)C2c3c(F)ccc(F)c3OCC23CC3)cn1 (stereo partly drawn) [Compound 79]	32500 nM	
Cc1n[nH]c(C)c1-c1ncc(NC(=O)[C@@H](NC(=O)c2nonc2C(C)C)C2c3ccc(F)cc3OCC23CC3)cc1F (stereo partly drawn) [Compound 39]	111 nM	856 nM
CCc1nonc1C(=O)N[C@H](C(=O)Nc1ccc(-c2c(C)n[nH]c2C)cc1)C1c2cc(F)ccc2OCC12CC2 (stereo partly drawn) [Compound 25]	56 nM	194 nM
Cc1n[nH]c(C)c1-c1ccc(NC(=O)[C@@H](NC(=O)c2ccnn2C(C)C)C2c3c(F)cc(F)cc3OCC23CC3)cn1 (stereo partly drawn) [Compound 59]	222 nM	1480 nM
Cc1n[nH]c(C)c1-c1ccc(NC(=O)[C@@H](NC(=O)c2ccnn2C(C)C)C2c3c(F)ccc(F)c3OCC23CC3)cc1 (stereo partly drawn) [Compound 76]	270 nM	1050 nM
Cc1n[nH]c(C)c1-c1ccc(NC(=O)[C@@H](NC(=O)C2(F)CC2)C2c3cc(F)c(F)cc3OCC23CC3)cc1 (stereo partly drawn) [Compound 55]	65 nM	228 nM
Cc1nonc1C(=O)N[C@H](C(=O)Nc1ccc(-c2c(C)n[nH]c2C)nc1)C1c2ccc(F)cc2CC12CC2 (stereo partly drawn) [Compound 32]	75 nM	351 nM
Cc1n[nH]c(C)c1-c1ccc(NC(=O)[C@@H](NC(=O)c2nonc2C(C)C)C2c3c(F)cc(F)cc3OCC23CC3)cn1 (stereo partly drawn) [Compound 66]	7130 nM	
Cc1n[nH]c(C)c1-c1ccc(NC(=O)[C@@H](NC(=O)c2ccnn2C)C2c3c(F)cccc3CC23CC3)cc1 (stereo partly drawn) [Compound 13]	31 nM	391 nM
Cn1nccc1C(=O)N[C@H](C(=O)Nc1ccc(N2CCOCC2)nc1)C1c2ccccc2CC12CC2 (stereo partly drawn) [Compound 10]	98 nM	
CCc1nonc1C(=O)N[C@H](C(=O)Nc1ccc(-c2c(C)n[nH]c2C)cc1)C1c2c(F)cc(F)cc2OCC12CC2 (stereo partly drawn) [Compound 53]	554 nM	
Cc1n[nH]c(C)c1-c1ncc(NC(=O)[C@@H](NC(=O)c2nonc2C(C)C)C2c3ccc(F)c(F)c3OCC23CC3)cc1F (stereo partly drawn) [Compound 64]	154 nM	335 nM
Cc1n[nH]c(C)c1-c1ccc(NC(=O)[C@@H](NC(=O)c2nonc2C(C)C)C2c3cc(F)cc(F)c3OCC23CC3)cc1 (stereo partly drawn) [Compound 74]	413 nM	609 nM
Cc1n[nH]c(C)c1-c1ccc(NC(=O)[C@@H](NC(=O)c2conc2C2CC2)C2c3cc(F)c(F)cc3OCC23CC3)cc1 (stereo partly drawn) [Compound 98]	222 nM	
Cc1n[nH]c(C)c1-c1ccc(NC(=O)[C@@H](NC(=O)c2ccnn2C(C)C)C2c3c(F)ccc(F)c3OCC23CC3)cn1 (stereo partly drawn) [Compound 75]	5000 nM	
CCc1nonc1C(=O)N[C@H](C(=O)Nc1ccc(-c2c(C)n[nH]c2C)cc1)C1c2c(F)ccc(F)c2OCC12CC2 (stereo partly drawn) [Compound 78]	985 nM	
Cc1n[nH]c(C)c1-c1ccc(NC(=O)[C@@H](NC(=O)c2ccnn2C(C)C)C2c3c(F)cc(F)cc3OCC23CC3)cc1 (stereo partly drawn) [Compound 54]	136 nM	
Cc1n[nH]c(C)c1-c1ncc(NC(=O)[C@@H](NC(=O)c2ccnn2C(C)C)C2c3c(F)ccc(F)c3OCC23CC3)cc1F (stereo partly drawn) [Compound 83]	2020 nM	

Reference: patent US20230227437A1, “IMMUNOMODULATOR” (priority 2020, published 2023)
